Test results taken from US20240207318A1, “CHIMERIC COSTIMULATORY RECEPTORS, CHEMOKINE RECEPTORS, AND THE USE OF SAME IN CELLULAR IMMUNOTHERAPIES” (Iovance Biotherapeutics, Inc., priority 2021, published 2024).
Entries after “also recorded” stand apart in the source; their conditions may differ. Values belong to the molecule of their own block, whether it stands above or below them.

How the values were obtained:
TILs [1] = test: Cytokine expression of drug-treated TILs after overnight anti-CD3/CD28 bead stimulation; type: cell-based, human
TILs [2] = test: Expansion and viability of TILs treated with drug during ex vivo 22-day expansion; type: cell-based, human; conditions: ipatasertib 0.3 or 1 μM, pre-REP and REP or REP only, relative to controls
Method: Patient tumors from different indications were received, fragmented, and subjected to an expansion protocol for TIL manufacturing. Different doses (0.3 μM and 1 μM) of the pan-AKT inhibitor ipatasertib were added to the culture during ex vivo expansion. The expansion potential, as well as the phenotypic and functional characteristics were evaluated on the final TIL product. Eight tumors, including tumors from melanoma, NSCLC, head and neck cancer, ovarian cancer, and breast cancer, were used in combination with the Gen 2 process.
Expansion, viability and T cell distribution in control and AKT inhibitor-treated TILs are shown. TILs were left untreated or treated with increasing concentrations of the pan-AKT inhibitor ipatasertib. Treatment was added either during the pre-REP and REP (blue bars) or during the REP stage only (purple bars). Fold expansion and viability of TIL at the end of the 22-day expansion process are shown. Frequency of CD8^+, CD4^+ and CD4^+ (Foxp3^+) cells after the expansion process on cryopreserved cells are also shown.
In this example, the use of decitabine, a DNA hypomethylation agent, in culture as an epigenetic modifier of TIL products was explored. […] Patient tumors (N=8) from different tumor types (non-small cell lung, head and neck, ovarian, and breast cancers) were obtained from donors, fragmented, and subjected to a 22-day expansion protocol for TIL generation. Different doses (10 nM, 30 nM, and 100 nM) of decitabine were added to the culture during ex vivo expansion either during the pre-REP and REP stages or during REP only. The expansion potential as well as the phenotypic and functional characteristics of TILs were evaluated in the final TIL product.
TILs were left untreated (CTRL, gray bars) or treated with increasing concentrations of decitabine. Treatment was added either during the REP stage only (blue bars) or during both pre-REP and REP (green bars).

TILs [3] = test: Flow cytometry phenotype of drug-treated TILs (T-cell subsets, surface markers, transcription factors); type: cell-based, human
PD-L1 = biological target: T1, PD-L1 (human, UniProt Q9NZQ7 19-290, limits assumed); test: characterization of the anti-PD-L1 antibody clone; EC50 assay method not given
T1 construct: also called hPD-L1; CD274
T1 sequence (Q9NZQ7 19-290 limits assumed): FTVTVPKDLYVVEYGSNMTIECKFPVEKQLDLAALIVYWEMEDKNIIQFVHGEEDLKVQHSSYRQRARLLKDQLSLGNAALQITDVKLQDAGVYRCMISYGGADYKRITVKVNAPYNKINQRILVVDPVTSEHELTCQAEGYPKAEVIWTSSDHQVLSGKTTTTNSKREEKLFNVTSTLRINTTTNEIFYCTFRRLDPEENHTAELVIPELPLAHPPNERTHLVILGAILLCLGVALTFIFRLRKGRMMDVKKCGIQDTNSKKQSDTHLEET

[4] = AKT inhibition during expansion

Molecule: CC(C)NC[C@@H](C(=O)N1CCN(c2ncnc3c2[C@H](C)C[C@H]3O)CC1)c1ccc(Cl)cc1 [ipatasertib]
cytokine output following stimulation (TILs [1]; 1 μM ipatasertib at pre-REP and REP, anti-CD3/CD28 beads 1:5 overnight): higher cytokine output
frequency of IFNγ+ TNFα+ CD8+ T cells (TILs [1]; AKT inhibitor treatment): increase
TIL expansion (fold expansion) (TILs [2]): maintains
TIL viability (TILs [2]): maintains
TIL expansion (fold expansion) (TILs [2]; listed as AKT inhibitor): equivalent
TIL viability (TILs [2]; listed as AKT inhibitor): equivalent
IL-7R and CXCR3 expression on CD8+ TILs (TILs [3]; [4]): increase
frequency of CD8+ TEMRA cells (TILs [3]; [4]): increase
population of less differentiated CD39-CD69- cells (TILs [3]; AKT inhibitor during expansion, relative to controls): increases; also recorded: doubled
TOX expression following stimulation (TILs [3]; AKT inhibitor-treated TILs): lower TOX expression
expression of CD38 and transcription factors T-bet and TOX (TILs [3]; CD39-CD69- cells, AKT inhibitor 1 μM): reduced expression
T cell ratios (CD8+, CD4+, CD4+ Foxp3+) (TILs [3]; ipatasertib-treated TILs after expansion): without affecting T cell ratios

EC50 (PD-L1): 0.404 nM
B1: anti-PD-L1 antibody clone 38A1-IgG4-HA (antibody)
chain: EVQLVESGGGLVQPGGSLRLSCAASGFTFSNYAMSWVRQAPGKGLEWVSTISGSGGTTYYADSVKGRFTISRDNSKNTLYLQMNSLRVEDTAVYYCAKDWFRSSSPDAFDIWGQGTTVTVSAGGGGSGGGGSGGGGSGAPSYVLTQPPSVSVAPGQTARITCGGNNIGRKIVHWYQQRPGQAPVLVIYYDTDRPAGIPERFSGSNSGNMATLTISTVGAGDEADYYCQVWDTGSDHVVFGGGTKLTVL

EC50 (PD-L1): 0.125 nM
B2: anti-PD-L1 antibody clone 19H9-IgG4-Flag (antibody)
chain: QVQLQESGGGLVKPGGSLRLSCAASGFTFSSYSMNWVRQAPGKGLEWVSGINTAGDTHYPESVKGRFTISRDNARNSLNLQMNSLRAEDTAVYYCVRERVEREYSGYDAFDIWGQGTTVTVSAGGGGSGGGGSGGGGSGAPNFMLTQPHSVSESLGKTVTISCTGSSGSIARKFVQWYQQRPGSSPTTVIYENNQRPSGVSDRFSGSIGSSSNSASLTISGLKTEDEADYYCQSYDSSNVVFGGGTKVTVL
